Test results published in US9358272B2, “Multicomponent compositions and their uses” (THE ADMINISTRATORS OF THE TULANE EDUCATIONAL FUND, priority 2011, dated 2016).
Where a SMILES comes first, the peptide text is derived from it. [ ]: non-standard residue; d: D form. The star is where a group is joined. Nle = CCCC[C@H](N)C(=O)O; Cbz = O=C(OCc1ccccc1)*

Columns and labels:
[1] = test system: pancreatic cancer CFPAC-1 cells; experiment: Cell proliferation assay (MTT), CFPAC-1 cells; assay type: cell-based, Human; conditions: single agents and combinations
Description: (§1) Cell Proliferation Assay (MTT)
(§2) The cell proliferation assay was performed as described previously in Sun et al., Bioorg Med Chem Lett, 2004, Vol. 14, pp. 2041-2046. Briefly, 50 μl aliquots of medium with different concentrations of compounds were added to 96-well plates. All compound concentrations were tested in triplicate. Another 50 μl of the cell stock (1×10^5 cells/ml of media) was dispensed into each test well and the plates were incubated at 37° C. in a CO2 incubator for 3 days. Following the incubation period, 15 μl of the dye solution was added to each well and the plates were then incubated at 37° C. for 4 hours, followed by the addition of 100 μl per well of the solubilization solution. The plates were incubated at 37° C. until the contents in each well became a uniform-colored solution. The absorbance was measured and recorded at 570 nm by a Victor Plate Reader.
(§3) The cell proliferation assay (Promega, Madison, Wis.) was performed as described in Sun et al., Bioorg Med Chem Lett, 2004, Vol. 14, pp. 2041-2046. The absorbance was measured and recorded at 570 nm by a Victor Plate Reader (PerkinElmer, Boston, Mass.).

[2] = test system: colonrectal cancer HT-29 cells; experiment: Cell proliferation assay (MTT), HT-29 cells; assay type: cell-based, Human; conditions: single agents and combinations
Description: as §1, §2, §3

[3] = test system: ovarian cancer OVCAR8 cells; experiment: Cell proliferation assay (MTT), OVCAR8 cells; assay type: cell-based, Human; conditions: single agents and combinations
Description: as §1, §2, §3

[4] = test system: cervical cancer Hela cells; experiment: Cell proliferation assay (MTT), cervical cancer Hela cells; assay type: cell-based, Human; conditions: single agents and combinations, VPA 2.5 mM in FIGS. 19, 22
[5] = test system: small cell lung cancer DMS-53 cells; experiment: Cell proliferation assay (MTT), DMS-53 cells; assay type: cell-based; conditions: single agents and combinations, 2.5 mM VPA or 10 uM SBHA in FIGS. 21, 24
[6] = test system: pancreatic carcinoid BON cells; experiment: Cell proliferation assay (MTT), BON cells; assay type: cell-based, Human; conditions: single agents and combinations, 2.5 mM VPA or 10 uM SBHA in FIGS. 20, 23
[7] = test system: Hela-GFP cells; experiment: Cell proliferation assay (MTT), Hela-GFP cells; assay type: cell-based, Human
Description: as §1
(§4) The cell proliferation assay (Promega, Madison, Wis.) was performed as described previously in Sun et al., Bioorg Med Chem Lett, 2004, Vol. 14, pp. 2041-2046. Briefly, fifty μl of medium with or without tested compounds was added to 96-well plates. Another 50 μl of tested cancer cells (1×10^5 cells/ml) suspended in culture medium was dispensed into each well. The plates were incubated at 37° C. for 3 days. Afterward, plates were added with a 15 μl dye solution per well and incubated at 37° C. for 4 hours. To each well was then added 100 μl of the solubilization solution and the plates were incubated at 37° C. again until the contents in each well became a uniformly colored solution. The plates were measured at 570 nm by a Victor Reader (PerkinElmer).

[8] = test system: Hela-ICN1 cells; experiment: Cell proliferation assay (MTT), Notch1-activated Hela-ICN1 cells; assay type: cell-based, Human
Description: as §1, §4

[9] = test system: cAMP production in Hela-ICN1 cells; experiment: Fluorescence polarization (FP) cAMP assay, Hela-ICN1 cells; assay type: cell-based, Human; conditions: for cAMP production: Hela cells with activated Notch1 signaling (Hela-ICN1)
Description: (§5) Fluorescence Polarization (FP) cAMP Assay The FP cAMP assay (FPA202) was performed according to the manufacturer's protocol (PerkinElmer, Boston, Mass. 02118-2512). Briefly, ten μl of forskolin at different concentrations were added to each well, then to each well ten μl of cell suspended in Stimulation Mix (made fresh before use by mixing anti-cAMP antibody in stimulation buffer) was added. Plates were incubated 30 minutes at 37° C. Twenty μl of Detection Mix (Fluo-cAMP stock diluted in Detection Buffer) was added and continued incubation 30 minutes at 37° C. Meanwhile, the standard curve, and controls were done. The cAMP was measured by Victor Reader (PerkinElmer).

[10] = test system: cAMP production in Hela-GFP cells; experiment: Fluorescence polarization (FP) cAMP assay, Hela-GFP cells; assay type: cell-based, Human; conditions: control Hela (Hela-GFP) cells
Description: as §5

CCCC[C@@H](C=O)NC(=O)[C@H](CC(C)C)NC(=O)[C@H](CC(C)C)NC(=O)OCc1ccccc1 [NLE, Z-Leu-Leu-Nle-CHO] (Cbz-Leu-Leu-[Nle]-aldehyde)
cell growth suppression (MTT), in words [1]: induced cell growth arrest
cell growth suppression (MTT), in words [2]: induced cell growth arrest
cell growth suppression (MTT), in words [3]: induced cell growth arrest

O=C(CCCCCCC(=O)NO)NO [SBHA, suberoyl bis-hydroxamic acid]
cell growth suppression (MTT), in words [4]: suppressed
cell growth suppression (MTT), in words [5]: induced growth suppression
cell growth suppression (MTT), in words [6]: induced growth suppression

C[C@H](N)C(=O)NCC(=O)N[C@H]1CSSC[C@@H](C(=O)O)NC(=O)[C@H](CO)NC(=O)[C@H]([C@@H](C)O)NC(=O)[C@H](Cc2ccccc2)NC(=O)[C@H]([C@@H](C)O)NC(=O)[C@H](CCCCN)NC(=O)[C@H](Cc2c[nH]c3ccccc23)NC(=O)[C@H](Cc2ccccc2)NC(=O)[C@H](Cc2ccccc2)NC(=O)[C@H](CC(N)=O)NC(=O)[C@H](CCCCN)NC1=O [SST-14, Ala-Gly-Cys-Lys-Asn-Phe-Phe-Trp-Lys-Thr-Phe-Thr-Ser-Cys]
inhibitory rate of cell proliferation (MTT) ([7]; compound at 1 μM): almost no effect
inhibitory rate of cell proliferation (MTT) ([7]; compound at 10 μM): 28%
inhibitory rate of cell proliferation (MTT) ([7]; compound at 20 μM): about 40%
inhibition of cell growth (MTT) ([8]; compound at 1 μM): 2%
inhibition of cell growth (MTT) ([8]; compound at 10 μM): 8%

C=C[C@@]1(C)CC(=O)[C@]2(O)[C@@]3(C)[C@@H](O)CCC(C)(C)[C@@H]3[C@H](O)[C@H](OC(C)=O)[C@@]2(C)O1 [forskolin]
cAMP production ([9]; forskolin at 1 μM): 0.05 pMol cAMP per 10^3 cells
cAMP production ([9]; forskolin at 10 μM): 0.25 pMol cAMP per 10^3 cells
cAMP production ([9]; forskolin at 50 μM): 0.46 pMol cAMP per 10^3 cells
cAMP concentration in Hela-ICN1 cells relative to Hela-GFP cells ([9]; forskolin at 1 μM): 10 fold
cAMP concentration in Hela-ICN1 cells relative to Hela-GFP cells ([9]; forskolin at 10 μM): 14 fold
cAMP concentration in Hela-ICN1 cells relative to Hela-GFP cells ([9]; forskolin at 50 μM): 19 fold
cAMP production ([10]; forskolin at 1 μM): 0.005 pMol cAMP per 10^3 cells
cAMP production ([10]; forskolin at 10 μM): 0.018 pMol cAMP per 10^3 cells
cAMP production ([10]; forskolin at 50 μM): 0.024 pMol cAMP per 10^3 cells
